Reference: ChEMBL document CHEMBL5724914, “Linking interpersonal differences in gut microbiota composition and drug biotransformation activity” (2024)

conditions: human gut metagenome, 24 h, 2 µM
Further: call rule not given here.

Row | SMILES | Bacterial Biotransformation
1 | C[C@]12CCC(=O)C=C1[C@@H]1C[C@@H]1[C@H]1[C@@H]3[C@@H]4C[C@@H]4[C@@]4(CCC(=O)O4)[C@@]3(C)CC[C@@H]12 [DROSPIRENONE] | Compound metabolized
2 | CC(C)c1c(CN(C)C(C)Cc2ccccc2)n(C)n(-c2ccccc2)c1=O (stereo not given) [FAMPROFAZONE] | Compound metabolized

assay: (§1) The drug is tested on Z-025 corresponding to rabbit gut metagenome with ENA study accession number: PRJEB37062 and ENA sample accession number: ERS12561824 for biotransformation under anaerobic condition. The drug concentrations were measured over 9 timepoints collected between 0 and 24 hours of incubation by liquid-chromatography-coupled mass spectrometry (LC–MS); conditions: 2 µM

Row | SMILES | Bacterial Biotransformation
3 | C[C@]12CCC(=O)C=C1[C@@H]1C[C@@H]1[C@H]1[C@@H]3[C@@H]4C[C@@H]4[C@@]4(CCC(=O)O4)[C@@]3(C)CC[C@@H]12 [DROSPIRENONE] | Compound NOT metabolized
4 | CC(C)c1c(CN(C)C(C)Cc2ccccc2)n(C)n(-c2ccccc2)c1=O (stereo not given) [FAMPROFAZONE] | Compound NOT metabolized

assay: as §1, with “Z-030” for “Z-025”, “mouse” for “rabbit”, “ERS12561829” for “ERS12561824”; conditions: 2 µM

Row | SMILES | Bacterial Biotransformation
5 | C[C@]12CCC(=O)C=C1[C@@H]1C[C@@H]1[C@H]1[C@@H]3[C@@H]4C[C@@H]4[C@@]4(CCC(=O)O4)[C@@]3(C)CC[C@@H]12 [DROSPIRENONE] | Compound NOT metabolized
6 | CC(C)c1c(CN(C)C(C)Cc2ccccc2)n(C)n(-c2ccccc2)c1=O (stereo not given) [FAMPROFAZONE] | Compound NOT metabolized

conditions: human gut metagenome, 24 h, 2 µM; remark: another data set of the same source

Row | SMILES | Bacterial Biotransformation
7 | C[C@]12CCC(=O)C=C1[C@@H]1C[C@@H]1[C@H]1[C@@H]3[C@@H]4C[C@@H]4[C@@]4(CCC(=O)O4)[C@@]3(C)CC[C@@H]12 [DROSPIRENONE] | Compound metabolized
8 | CC(C)c1c(CN(C)C(C)Cc2ccccc2)n(C)n(-c2ccccc2)c1=O (stereo not given) [FAMPROFAZONE] | Compound metabolized

conditions: human gut metagenome, 24 h, 2 µM; remark: another data set of the same source

Row | SMILES | Bacterial Biotransformation
9 | C[C@]12CCC(=O)C=C1[C@@H]1C[C@@H]1[C@H]1[C@@H]3[C@@H]4C[C@@H]4[C@@]4(CCC(=O)O4)[C@@]3(C)CC[C@@H]12 [DROSPIRENONE] | Compound NOT metabolized
10 | CC(C)c1c(CN(C)C(C)Cc2ccccc2)n(C)n(-c2ccccc2)c1=O (stereo not given) [FAMPROFAZONE] | Compound metabolized

conditions: human gut metagenome, 24 h, 2 µM; remark: another data set of the same source

Row | SMILES | Bacterial Biotransformation
11 | C[C@]12CCC(=O)C=C1[C@@H]1C[C@@H]1[C@H]1[C@@H]3[C@@H]4C[C@@H]4[C@@]4(CCC(=O)O4)[C@@]3(C)CC[C@@H]12 [DROSPIRENONE] | Compound metabolized
12 | CC(C)c1c(CN(C)C(C)Cc2ccccc2)n(C)n(-c2ccccc2)c1=O (stereo not given) [FAMPROFAZONE] | Compound metabolized

conditions: human gut metagenome, 24 h, 2 µM; remark: another data set of the same source

Row | SMILES | Bacterial Biotransformation
13 | C[C@]12CCC(=O)C=C1[C@@H]1C[C@@H]1[C@H]1[C@@H]3[C@@H]4C[C@@H]4[C@@]4(CCC(=O)O4)[C@@]3(C)CC[C@@H]12 [DROSPIRENONE] | Compound metabolized
14 | CC(C)c1c(CN(C)C(C)Cc2ccccc2)n(C)n(-c2ccccc2)c1=O (stereo not given) [FAMPROFAZONE] | Compound metabolized

conditions: human gut metagenome, 24 h, 2 µM; remark: another data set of the same source

Row | SMILES | Bacterial Biotransformation
15 | C[C@]12CCC(=O)C=C1[C@@H]1C[C@@H]1[C@H]1[C@@H]3[C@@H]4C[C@@H]4[C@@]4(CCC(=O)O4)[C@@]3(C)CC[C@@H]12 [DROSPIRENONE] | Compound NOT metabolized
16 | CC(C)c1c(CN(C)C(C)Cc2ccccc2)n(C)n(-c2ccccc2)c1=O (stereo not given) [FAMPROFAZONE] | Compound metabolized

conditions: human gut metagenome, 24 h, 2 µM; remark: another data set of the same source

Row | SMILES | Bacterial Biotransformation
17 | C[C@]12CCC(=O)C=C1[C@@H]1C[C@@H]1[C@H]1[C@@H]3[C@@H]4C[C@@H]4[C@@]4(CCC(=O)O4)[C@@]3(C)CC[C@@H]12 [DROSPIRENONE] | Compound metabolized
18 | CC(C)c1c(CN(C)C(C)Cc2ccccc2)n(C)n(-c2ccccc2)c1=O (stereo not given) [FAMPROFAZONE] | Compound metabolized

conditions: human gut metagenome, 24 h, 2 µM; remark: another data set of the same source

Row | SMILES | Bacterial Biotransformation
19 | C[C@]12CCC(=O)C=C1[C@@H]1C[C@@H]1[C@H]1[C@@H]3[C@@H]4C[C@@H]4[C@@]4(CCC(=O)O4)[C@@]3(C)CC[C@@H]12 [DROSPIRENONE] | Compound metabolized
20 | CC(C)c1c(CN(C)C(C)Cc2ccccc2)n(C)n(-c2ccccc2)c1=O (stereo not given) [FAMPROFAZONE] | Compound metabolized

assay: as §1, with “WLS-069” for “Z-025”, “human” for “rabbit”, “ERS12561748” for “ERS12561824”; conditions: 2 µM

Row | SMILES | Bacterial Biotransformation
21 | C[C@]12CCC(=O)C=C1[C@@H]1C[C@@H]1[C@H]1[C@@H]3[C@@H]4C[C@@H]4[C@@]4(CCC(=O)O4)[C@@]3(C)CC[C@@H]12 [DROSPIRENONE] | Compound metabolized
22 | CC(C)c1c(CN(C)C(C)Cc2ccccc2)n(C)n(-c2ccccc2)c1=O (stereo not given) [FAMPROFAZONE] | Compound metabolized

assay: as §1, with “WLS-039” for “Z-025”, “human” for “rabbit”, “ERS12561746” for “ERS12561824”; conditions: 2 µM

Row | SMILES | Bacterial Biotransformation
23 | C[C@]12CCC(=O)C=C1[C@@H]1C[C@@H]1[C@H]1[C@@H]3[C@@H]4C[C@@H]4[C@@]4(CCC(=O)O4)[C@@]3(C)CC[C@@H]12 [DROSPIRENONE] | Compound metabolized
24 | CC(C)c1c(CN(C)C(C)Cc2ccccc2)n(C)n(-c2ccccc2)c1=O (stereo not given) [FAMPROFAZONE] | Compound metabolized

conditions: human gut metagenome, 24 h, 2 µM; remark: another data set of the same source

Row | SMILES | Bacterial Biotransformation
25 | C[C@]12CCC(=O)C=C1[C@@H]1C[C@@H]1[C@H]1[C@@H]3[C@@H]4C[C@@H]4[C@@]4(CCC(=O)O4)[C@@]3(C)CC[C@@H]12 [DROSPIRENONE] | Compound NOT metabolized
26 | CC(C)c1c(CN(C)C(C)Cc2ccccc2)n(C)n(-c2ccccc2)c1=O (stereo not given) [FAMPROFAZONE] | Compound metabolized

conditions: human gut metagenome, 24 h, 2 µM; remark: another data set of the same source

Row | SMILES | Bacterial Biotransformation
27 | C[C@]12CCC(=O)C=C1[C@@H]1C[C@@H]1[C@H]1[C@@H]3[C@@H]4C[C@@H]4[C@@]4(CCC(=O)O4)[C@@]3(C)CC[C@@H]12 [DROSPIRENONE] | Compound metabolized
28 | CC(C)c1c(CN(C)C(C)Cc2ccccc2)n(C)n(-c2ccccc2)c1=O (stereo not given) [FAMPROFAZONE] | Compound metabolized

assay: as §1, with “WLS-038” for “Z-025”, “human” for “rabbit”, “ERS12561745” for “ERS12561824”; conditions: 2 µM

Row | SMILES | Bacterial Biotransformation
29 | C[C@]12CCC(=O)C=C1[C@@H]1C[C@@H]1[C@H]1[C@@H]3[C@@H]4C[C@@H]4[C@@]4(CCC(=O)O4)[C@@]3(C)CC[C@@H]12 [DROSPIRENONE] | Compound metabolized
30 | CC(C)c1c(CN(C)C(C)Cc2ccccc2)n(C)n(-c2ccccc2)c1=O (stereo not given) [FAMPROFAZONE] | Compound metabolized

assay: as §1, with “Z-017” for “Z-025”, “mouse” for “rabbit”, “ERS12561816” for “ERS12561824”; conditions: 2 µM

Row | SMILES | Bacterial Biotransformation
31 | C[C@]12CCC(=O)C=C1[C@@H]1C[C@@H]1[C@H]1[C@@H]3[C@@H]4C[C@@H]4[C@@]4(CCC(=O)O4)[C@@]3(C)CC[C@@H]12 [DROSPIRENONE] | Compound metabolized
32 | CC(C)c1c(CN(C)C(C)Cc2ccccc2)n(C)n(-c2ccccc2)c1=O (stereo not given) [FAMPROFAZONE] | Compound NOT metabolized

assay: as §1, with “Z-001” for “Z-025”, “mouse” for “rabbit”, “ERS12561801” for “ERS12561824”; conditions: 2 µM

Row | SMILES | Bacterial Biotransformation
33 | C[C@]12CCC(=O)C=C1[C@@H]1C[C@@H]1[C@H]1[C@@H]3[C@@H]4C[C@@H]4[C@@]4(CCC(=O)O4)[C@@]3(C)CC[C@@H]12 [DROSPIRENONE] | Compound NOT metabolized
34 | CC(C)c1c(CN(C)C(C)Cc2ccccc2)n(C)n(-c2ccccc2)c1=O (stereo not given) [FAMPROFAZONE] | Compound metabolized

conditions: human gut metagenome, 24 h, 2 µM; remark: another data set of the same source

Row | SMILES | Bacterial Biotransformation
35 | C[C@]12CCC(=O)C=C1[C@@H]1C[C@@H]1[C@H]1[C@@H]3[C@@H]4C[C@@H]4[C@@]4(CCC(=O)O4)[C@@]3(C)CC[C@@H]12 [DROSPIRENONE] | Compound metabolized
36 | CC(C)c1c(CN(C)C(C)Cc2ccccc2)n(C)n(-c2ccccc2)c1=O (stereo not given) [FAMPROFAZONE] | Compound metabolized

conditions: human gut metagenome, 24 h, 2 µM; remark: another data set of the same source

Row | SMILES | Bacterial Biotransformation
37 | C[C@]12CCC(=O)C=C1[C@@H]1C[C@@H]1[C@H]1[C@@H]3[C@@H]4C[C@@H]4[C@@]4(CCC(=O)O4)[C@@]3(C)CC[C@@H]12 [DROSPIRENONE] | Compound NOT metabolized
38 | CC(C)c1c(CN(C)C(C)Cc2ccccc2)n(C)n(-c2ccccc2)c1=O (stereo not given) [FAMPROFAZONE] | Compound metabolized

assay: as §1, with “Z-002” for “Z-025”, “ERS12561802” for “ERS12561824”; conditions: 2 µM

Row | SMILES | Bacterial Biotransformation
39 | C[C@]12CCC(=O)C=C1[C@@H]1C[C@@H]1[C@H]1[C@@H]3[C@@H]4C[C@@H]4[C@@]4(CCC(=O)O4)[C@@]3(C)CC[C@@H]12 [DROSPIRENONE] | Compound metabolized
40 | CC(C)c1c(CN(C)C(C)Cc2ccccc2)n(C)n(-c2ccccc2)c1=O (stereo not given) [FAMPROFAZONE] | Compound metabolized
